# Experimental data as given in PMC6891286, “Towards the Development of an In vivo Chemical Probe for Cyclin G Associated Kinase (GAK)” (Molecules, 2019).
# Key:
# Assay in all cases: KINOMEscan
# Type in all cases: binding
# PRKCD = biological target: T1, PRKCD (Homo sapiens, UniProt Q05655); conditions: 35 at 1 µM; read-out: % inhibition
# T1 construct: purchased Eurofins DiscoverX (KINOMEscan)
# Procedure: (§1) KinomeScan Assay on 35 was performed as previously described at EuroFins DiscoverX (Fremont, CA, USA).
# GRK2 = biological target: T2, GRK2 (Homo sapiens, UniProt P25098); conditions: 35 at 1 µM; read-out: % inhibition
# T2 construct: purchased Eurofins DiscoverX (KINOMEscan)
# Procedure: as §1
# MET = biological target: T3, MET (Homo sapiens, UniProt P08581); conditions: 35 at 1 µM; read-out: % inhibition
# T3 construct: purchased Eurofins DiscoverX (KINOMEscan)
# Procedure: as §1
# MAK = biological target: T4, MAK (Homo sapiens, UniProt P20794); conditions: 35 at 1 µM; read-out: % inhibition
# T4 construct: purchased Eurofins DiscoverX (KINOMEscan)
# T4 sequence (P20794 whole entry): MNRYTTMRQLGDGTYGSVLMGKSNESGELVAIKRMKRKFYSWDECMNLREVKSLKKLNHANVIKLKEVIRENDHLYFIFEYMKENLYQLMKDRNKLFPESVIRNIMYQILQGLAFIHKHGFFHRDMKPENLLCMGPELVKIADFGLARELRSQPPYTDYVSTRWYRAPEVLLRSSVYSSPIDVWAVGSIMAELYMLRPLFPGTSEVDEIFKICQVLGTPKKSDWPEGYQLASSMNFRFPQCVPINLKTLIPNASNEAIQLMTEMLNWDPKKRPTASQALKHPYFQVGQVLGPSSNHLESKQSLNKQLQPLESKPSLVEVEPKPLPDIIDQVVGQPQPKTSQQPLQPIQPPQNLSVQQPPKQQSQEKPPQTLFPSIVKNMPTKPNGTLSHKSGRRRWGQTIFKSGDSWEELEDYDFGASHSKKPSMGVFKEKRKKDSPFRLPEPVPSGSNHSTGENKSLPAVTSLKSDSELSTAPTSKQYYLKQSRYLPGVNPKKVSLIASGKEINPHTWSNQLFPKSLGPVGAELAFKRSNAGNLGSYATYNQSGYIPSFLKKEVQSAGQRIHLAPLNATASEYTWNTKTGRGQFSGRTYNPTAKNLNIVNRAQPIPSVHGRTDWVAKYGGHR
# Procedure: as §1
# PIK3CA(E545K) = biological target: T5, PIK3CA(E545K) (Homo sapiens, UniProt P42336, E545K); conditions: 35 at 1 µM; read-out: % inhibition
# T5 construct: purchased Eurofins DiscoverX (KINOMEscan)
# T5 sequence (P42336 whole entry E545K): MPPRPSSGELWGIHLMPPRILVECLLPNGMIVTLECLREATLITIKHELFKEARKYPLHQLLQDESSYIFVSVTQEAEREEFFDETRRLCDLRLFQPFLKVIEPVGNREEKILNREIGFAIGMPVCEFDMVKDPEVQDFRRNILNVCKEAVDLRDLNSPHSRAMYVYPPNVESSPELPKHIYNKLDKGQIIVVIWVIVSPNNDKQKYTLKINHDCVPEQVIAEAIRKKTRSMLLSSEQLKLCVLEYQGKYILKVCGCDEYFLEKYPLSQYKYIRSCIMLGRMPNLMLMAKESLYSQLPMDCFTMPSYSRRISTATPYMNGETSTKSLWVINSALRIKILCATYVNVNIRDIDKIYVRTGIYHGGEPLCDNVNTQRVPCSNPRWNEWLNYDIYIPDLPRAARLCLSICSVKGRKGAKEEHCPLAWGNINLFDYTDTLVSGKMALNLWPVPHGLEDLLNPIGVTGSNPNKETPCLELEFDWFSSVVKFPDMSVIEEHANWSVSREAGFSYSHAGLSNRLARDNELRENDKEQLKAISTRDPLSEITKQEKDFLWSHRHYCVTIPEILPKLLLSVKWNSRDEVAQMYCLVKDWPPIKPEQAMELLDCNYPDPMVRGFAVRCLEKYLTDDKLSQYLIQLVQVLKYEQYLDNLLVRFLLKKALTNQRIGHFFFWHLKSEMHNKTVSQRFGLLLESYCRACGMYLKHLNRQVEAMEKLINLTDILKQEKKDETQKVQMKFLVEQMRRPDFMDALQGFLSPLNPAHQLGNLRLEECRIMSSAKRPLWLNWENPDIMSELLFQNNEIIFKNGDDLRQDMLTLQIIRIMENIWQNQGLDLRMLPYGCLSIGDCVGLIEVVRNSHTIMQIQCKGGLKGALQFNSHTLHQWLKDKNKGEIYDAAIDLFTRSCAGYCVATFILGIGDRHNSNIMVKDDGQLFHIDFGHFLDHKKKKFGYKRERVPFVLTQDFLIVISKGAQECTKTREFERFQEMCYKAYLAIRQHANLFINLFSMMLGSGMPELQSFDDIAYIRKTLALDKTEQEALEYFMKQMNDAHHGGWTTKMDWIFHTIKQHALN
# Procedure: as §1
# ERBB2 = biological target: T6, ERBB2 (Homo sapiens, UniProt P04626); conditions: 35 at 1 µM; read-out: % inhibition
# T6 construct: purchased Eurofins DiscoverX (KINOMEscan)
# Procedure: as §1
# GRK1 = biological target: T7, GRK1 (Homo sapiens, UniProt Q15835); conditions: 35 at 1 µM; read-out: % inhibition
# T7 construct: purchased Eurofins DiscoverX (KINOMEscan)
# Procedure: as §1
# AMPK-alpha1 = biological target: T8, AMPK-alpha1 (Homo sapiens, UniProt Q13131); conditions: 35 at 1 µM; read-out: % inhibition
# T8 construct: purchased Eurofins DiscoverX (KINOMEscan)
# Procedure: as §1
# PIK4CB = biological target: T9, PIK4CB (Homo sapiens, UniProt Q9UBF8); conditions: 35 at 1 µM; read-out: % inhibition
# T9 construct: purchased Eurofins DiscoverX (KINOMEscan)
# T9 sequence (Q9UBF8 whole entry): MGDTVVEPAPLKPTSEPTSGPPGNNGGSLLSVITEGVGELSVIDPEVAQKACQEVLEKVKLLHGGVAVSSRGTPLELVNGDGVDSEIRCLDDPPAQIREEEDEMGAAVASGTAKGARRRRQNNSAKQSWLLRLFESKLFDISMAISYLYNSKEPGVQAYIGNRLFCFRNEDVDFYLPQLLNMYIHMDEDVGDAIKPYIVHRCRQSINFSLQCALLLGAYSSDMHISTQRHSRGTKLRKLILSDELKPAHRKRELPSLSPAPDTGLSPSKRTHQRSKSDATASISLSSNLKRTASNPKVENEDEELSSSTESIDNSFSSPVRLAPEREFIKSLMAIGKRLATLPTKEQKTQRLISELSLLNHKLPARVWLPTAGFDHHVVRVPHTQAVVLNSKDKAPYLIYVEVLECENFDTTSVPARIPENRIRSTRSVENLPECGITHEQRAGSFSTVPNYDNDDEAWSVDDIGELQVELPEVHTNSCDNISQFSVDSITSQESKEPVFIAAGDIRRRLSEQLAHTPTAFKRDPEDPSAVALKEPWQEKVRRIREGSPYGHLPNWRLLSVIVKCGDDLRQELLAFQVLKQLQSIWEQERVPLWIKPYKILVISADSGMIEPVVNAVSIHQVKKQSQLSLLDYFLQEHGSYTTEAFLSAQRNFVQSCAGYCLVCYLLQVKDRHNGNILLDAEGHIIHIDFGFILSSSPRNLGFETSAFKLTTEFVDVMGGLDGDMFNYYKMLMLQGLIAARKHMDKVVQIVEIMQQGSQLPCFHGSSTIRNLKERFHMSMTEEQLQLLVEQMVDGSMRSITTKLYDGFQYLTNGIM
# Procedure: as §1
# CDK7 = biological target: T10, CDK7 (Homo sapiens, UniProt P50613); conditions: 35 at 1 µM; read-out: % inhibition
# T10 construct: purchased Eurofins DiscoverX (KINOMEscan)
# Procedure: as §1
# MERTK = biological target: T11, MERTK (Homo sapiens, UniProt Q12866); conditions: 35 at 1 µM; read-out: % inhibition
# T11 construct: purchased Eurofins DiscoverX (KINOMEscan)
# Procedure: as §1
# FLT3(K663Q) = biological target: T12, FLT3(K663Q) (Homo sapiens, UniProt P36888, K663Q); conditions: 35 at 1 µM; read-out: % inhibition
# T12 construct: purchased Eurofins DiscoverX (KINOMEscan)
# Procedure: as §1
# EPHB1 = biological target: T13, EPHB1 (Homo sapiens, UniProt P54762); conditions: 35 at 1 µM; read-out: % inhibition
# T13 construct: purchased Eurofins DiscoverX (KINOMEscan)
# Procedure: as §1
# MRCKA = biological target: T14, MRCKA (Homo sapiens, UniProt Q5VT25); conditions: 35 at 1 µM; read-out: % inhibition
# T14 construct: purchased Eurofins DiscoverX (KINOMEscan)
# T14 sequence (Q5VT25 whole entry): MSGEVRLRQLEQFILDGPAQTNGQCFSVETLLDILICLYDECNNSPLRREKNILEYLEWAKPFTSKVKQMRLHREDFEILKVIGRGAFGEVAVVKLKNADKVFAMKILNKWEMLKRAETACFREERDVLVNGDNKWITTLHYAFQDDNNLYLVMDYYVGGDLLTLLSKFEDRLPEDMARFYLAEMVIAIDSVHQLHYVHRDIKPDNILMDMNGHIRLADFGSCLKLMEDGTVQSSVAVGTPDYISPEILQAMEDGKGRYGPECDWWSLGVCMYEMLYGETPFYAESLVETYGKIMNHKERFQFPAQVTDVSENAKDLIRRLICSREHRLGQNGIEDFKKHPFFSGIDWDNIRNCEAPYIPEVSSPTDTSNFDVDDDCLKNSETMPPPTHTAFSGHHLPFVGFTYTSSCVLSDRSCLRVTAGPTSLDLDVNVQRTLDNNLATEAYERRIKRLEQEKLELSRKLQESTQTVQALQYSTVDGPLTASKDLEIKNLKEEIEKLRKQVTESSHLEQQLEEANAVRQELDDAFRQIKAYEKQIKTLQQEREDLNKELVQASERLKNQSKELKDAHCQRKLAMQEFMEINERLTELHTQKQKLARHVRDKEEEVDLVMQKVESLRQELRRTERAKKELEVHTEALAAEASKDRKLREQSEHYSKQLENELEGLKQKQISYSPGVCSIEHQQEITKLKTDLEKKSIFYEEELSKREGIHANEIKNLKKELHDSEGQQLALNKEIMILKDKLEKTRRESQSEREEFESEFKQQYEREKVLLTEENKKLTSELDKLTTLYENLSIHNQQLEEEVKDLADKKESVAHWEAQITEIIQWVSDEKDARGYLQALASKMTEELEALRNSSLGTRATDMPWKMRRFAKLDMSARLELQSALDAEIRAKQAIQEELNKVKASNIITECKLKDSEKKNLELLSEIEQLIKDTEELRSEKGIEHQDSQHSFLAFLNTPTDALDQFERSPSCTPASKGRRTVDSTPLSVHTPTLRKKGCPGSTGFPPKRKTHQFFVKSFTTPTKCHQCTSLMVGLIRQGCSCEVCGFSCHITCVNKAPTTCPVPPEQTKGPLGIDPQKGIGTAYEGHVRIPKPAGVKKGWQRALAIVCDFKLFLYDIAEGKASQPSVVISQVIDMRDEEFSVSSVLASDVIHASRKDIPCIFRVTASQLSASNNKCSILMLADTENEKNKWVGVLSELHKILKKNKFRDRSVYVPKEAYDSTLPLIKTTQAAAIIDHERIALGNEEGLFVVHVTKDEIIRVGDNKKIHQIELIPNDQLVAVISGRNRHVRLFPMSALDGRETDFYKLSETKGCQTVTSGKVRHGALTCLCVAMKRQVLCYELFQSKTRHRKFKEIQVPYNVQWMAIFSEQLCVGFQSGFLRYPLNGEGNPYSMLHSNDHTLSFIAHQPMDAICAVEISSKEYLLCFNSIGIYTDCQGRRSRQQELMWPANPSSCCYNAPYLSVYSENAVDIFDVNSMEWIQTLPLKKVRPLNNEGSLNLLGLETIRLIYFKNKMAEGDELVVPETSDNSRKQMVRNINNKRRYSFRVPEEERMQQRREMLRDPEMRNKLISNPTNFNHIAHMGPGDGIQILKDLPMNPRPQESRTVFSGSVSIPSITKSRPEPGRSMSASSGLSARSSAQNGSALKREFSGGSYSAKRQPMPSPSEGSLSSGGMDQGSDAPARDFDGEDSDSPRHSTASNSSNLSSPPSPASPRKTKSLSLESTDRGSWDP
# Procedure: as §1
# MAST1 = biological target: T15, MAST1 (Homo sapiens, UniProt Q9Y2H9); conditions: 35 at 1 µM; read-out: % inhibition
# T15 construct: purchased Eurofins DiscoverX (KINOMEscan)
# Procedure: as §1
# EGFR(E746-A750del) = biological target: T16, EGFR(E746-A750del) (Homo sapiens, UniProt P00533, DEL746-750); conditions: 35 at 1 µM; read-out: % inhibition
# T16 construct: purchased Eurofins DiscoverX (KINOMEscan)
# Procedure: as §1
# FLT3(D835V) = biological target: T17, FLT3(D835V) (Homo sapiens, UniProt P36888, D835V); conditions: 35 at 1 µM; read-out: % inhibition
# T17 construct: purchased Eurofins DiscoverX (KINOMEscan)
# Procedure: as §1
# FGR = biological target: T18, FGR (Homo sapiens, UniProt P09769); conditions: 35 at 1 µM; read-out: % inhibition
# T18 construct: purchased Eurofins DiscoverX (KINOMEscan)
# Procedure: as §1
# p38-delta = biological target: T19, p38-delta (Homo sapiens, UniProt O15264); conditions: 35 at 1 µM; read-out: % inhibition
# T19 construct: purchased Eurofins DiscoverX (KINOMEscan)
# Procedure: as §1
# MAP3K1 = biological target: T20, MAP3K1 (Homo sapiens, UniProt Q13233); conditions: 35 at 1 µM; read-out: % inhibition
# T20 construct: purchased Eurofins DiscoverX (KINOMEscan)
# Procedure: as §1
# RIPK5 = biological target: T21, RIPK5 (Homo sapiens, UniProt Q6XUX3); conditions: 35 at 1 µM; read-out: % inhibition
# T21 construct: purchased Eurofins DiscoverX (KINOMEscan)
# Procedure: as §1
# NDR2 = biological target: T22, NDR2 (Homo sapiens, UniProt Q9Y2H1); conditions: 35 at 1 µM; read-out: % inhibition
# T22 construct: purchased Eurofins DiscoverX (KINOMEscan)
# Procedure: as §1
# PRKCI = biological target: T23, PRKCI (Homo sapiens, UniProt P41743); conditions: 35 at 1 µM; read-out: % inhibition
# T23 construct: purchased Eurofins DiscoverX (KINOMEscan)
# Procedure: as §1
# PRKD1 = biological target: T24, PRKD1 (Homo sapiens, UniProt Q15139); conditions: 35 at 1 µM; read-out: % inhibition
# T24 construct: purchased Eurofins DiscoverX (KINOMEscan)
# Procedure: as §1
# DAPK3 = biological target: T25, DAPK3 (Homo sapiens, UniProt O43293); conditions: 35 at 1 µM; read-out: % inhibition
# T25 construct: purchased Eurofins DiscoverX (KINOMEscan)
# Procedure: as §1
# WNK2 = biological target: T26, WNK2 (Homo sapiens, UniProt Q9Y3S1); conditions: 35 at 1 µM; read-out: % inhibition
# T26 construct: purchased EuroFins DiscoverX (Fremont, CA, USA)
# Procedure: as §1
# ERBB3 = biological target: T27, ERBB3 (Homo sapiens, UniProt P21860); conditions: 35 at 1 µM; read-out: % inhibition
# T27 construct: purchased Eurofins DiscoverX (KINOMEscan)
# Procedure: as §1
# FLT3-autoinhibited = biological target: T28, FLT3-autoinhibited (Homo sapiens, UniProt P36888); conditions: 35 at 1 µM; read-out: % inhibition
# T28 construct: purchased Eurofins DiscoverX (KINOMEscan)
# Procedure: as §1
# RIPK4 = biological target: T29, RIPK4 (Homo sapiens, UniProt P57078); conditions: 35 at 1 µM; read-out: % inhibition
# T29 construct: purchased Eurofins DiscoverX (KINOMEscan)
# Procedure: as §1
# INSRR = biological target: T30, INSRR (Homo sapiens, UniProt P14616); conditions: 35 at 1 µM; read-out: % inhibition
# T30 construct: purchased Eurofins DiscoverX (KINOMEscan)
# Procedure: as §1
# ANKK1 = biological target: T31, ANKK1 (Homo sapiens, UniProt Q8NFD2); conditions: 35 at 1 µM; read-out: % inhibition
# T31 construct: purchased Eurofins DiscoverX (KINOMEscan)
# Procedure: as §1
# YSK4 = biological target: T32, YSK4 (Homo sapiens, UniProt Q56UN5); conditions: 35 at 1 µM; read-out: % inhibition
# T32 construct: purchased Eurofins DiscoverX (KINOMEscan)
# Procedure: as §1
# BLK = biological target: T33, BLK (Homo sapiens, UniProt P51451); conditions: 35 at 1 µM; read-out: % inhibition
# T33 construct: purchased Eurofins DiscoverX (KINOMEscan)
# Procedure: as §1
# PIK3CA(M1043I) = biological target: T34, PIK3CA(M1043I) (Homo sapiens, UniProt P42336, M1043I); conditions: 35 at 1 µM; read-out: % inhibition
# T34 construct: purchased Eurofins DiscoverX (KINOMEscan)
# Procedure: as §1
# NEK11 = biological target: T35, NEK11 (Homo sapiens, UniProt Q8NG66); conditions: 35 at 1 µM; read-out: % inhibition
# T35 construct: purchased Eurofins DiscoverX (KINOMEscan)
# Procedure: as §1
# CDC2L2 = biological target: T36, CDC2L2 (Homo sapiens, UniProt Q9UQ88); conditions: 35 at 1 µM; read-out: % inhibition
# T36 construct: purchased Eurofins DiscoverX (KINOMEscan)
# Procedure: as §1
# MAP3K3 = biological target: T37, MAP3K3 (Homo sapiens, UniProt Q99759); conditions: 35 at 1 µM; read-out: % inhibition
# T37 construct: purchased Eurofins DiscoverX (KINOMEscan)
# Procedure: as §1
# MAP4K5 = biological target: T38, MAP4K5 (Homo sapiens, UniProt Q9Y4K4); conditions: 35 at 1 µM; read-out: % inhibition
# T38 construct: purchased Eurofins DiscoverX (KINOMEscan)
# T38 sequence (Q9Y4K4 whole entry): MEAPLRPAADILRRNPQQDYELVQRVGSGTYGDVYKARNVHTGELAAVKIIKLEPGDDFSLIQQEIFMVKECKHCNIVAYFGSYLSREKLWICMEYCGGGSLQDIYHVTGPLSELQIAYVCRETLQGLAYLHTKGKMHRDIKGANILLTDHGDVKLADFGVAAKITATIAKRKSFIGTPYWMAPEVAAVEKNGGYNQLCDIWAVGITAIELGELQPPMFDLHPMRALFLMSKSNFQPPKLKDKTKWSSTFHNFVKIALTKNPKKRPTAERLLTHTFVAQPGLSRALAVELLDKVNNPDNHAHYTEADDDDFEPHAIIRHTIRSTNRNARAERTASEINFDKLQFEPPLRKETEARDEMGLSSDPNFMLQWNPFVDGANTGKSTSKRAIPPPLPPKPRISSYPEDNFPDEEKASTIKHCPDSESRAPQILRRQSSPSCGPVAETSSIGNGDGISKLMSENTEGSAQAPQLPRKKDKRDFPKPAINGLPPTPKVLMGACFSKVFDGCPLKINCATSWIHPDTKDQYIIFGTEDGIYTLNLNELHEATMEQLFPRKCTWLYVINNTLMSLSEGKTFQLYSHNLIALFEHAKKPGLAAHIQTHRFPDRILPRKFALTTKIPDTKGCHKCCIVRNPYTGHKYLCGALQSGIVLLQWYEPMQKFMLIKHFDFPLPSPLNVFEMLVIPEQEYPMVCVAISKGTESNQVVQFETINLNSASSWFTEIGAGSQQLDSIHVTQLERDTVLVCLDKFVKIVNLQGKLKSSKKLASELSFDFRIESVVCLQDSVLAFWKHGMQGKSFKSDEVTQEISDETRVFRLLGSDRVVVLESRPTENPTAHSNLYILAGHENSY
# Procedure: as §1
# PFCDPK1(P.falciparum) = biological target: T39, PFCDPK1(P.falciparum) (Plasmodium falciparum, UniProt P62344); conditions: read-out: % inhibition
# T39 construct: purchased Eurofins DiscoverX (KINOMEscan)
# Procedure: as §1
# SRC = biological target: T40, SRC (Homo sapiens, UniProt P12931); conditions: 35 at 1 µM; read-out: % inhibition
# T40 construct: purchased Eurofins DiscoverX (KINOMEscan)
# Procedure: as §1
# EPHB2 = biological target: T41, EPHB2 (Homo sapiens, UniProt P29323); conditions: 35 at 1 µM; read-out: % inhibition
# T41 construct: purchased Eurofins DiscoverX (KINOMEscan)
# Procedure: as §1
# p38-gamma = biological target: T42, p38-gamma (Homo sapiens, UniProt P53778); conditions: 35 at 1 µM; read-out: % inhibition
# T42 construct: purchased Eurofins DiscoverX (KINOMEscan)
# Procedure: as §1
# CSNK1G2 = biological target: T43, CSNK1G2 (Homo sapiens, UniProt P78368); conditions: 35 at 1 µM; read-out: % inhibition
# T43 construct: purchased Eurofins DiscoverX (KINOMEscan)
# Procedure: as §1
structure (smiles),measurement,setting,value
"Brc1ccc2nccc(Nc3ccc4cn[nH]c4c3)c2c1 [Compound 35, 6-Bromo-N-(1H-indazol-6-yl)quinolin-4-amine]",activity at 1 µM,PRKCD,100%
same,activity at 1 µM,GRK2,100%
same,activity at 1 µM,MET,100%
same,activity at 1 µM,MAK,100%
same,activity at 1 µM,PIK3CA(E545K),66%
same,activity at 1 µM,ERBB2,100%
same,activity at 1 µM,GRK1,68%
same,activity at 1 µM,AMPK-alpha1,100%
same,activity at 1 µM,PIK4CB,100%
same,activity at 1 µM,CDK7,100%
same,activity at 1 µM,MERTK,85%
same,activity at 1 µM,FLT3(K663Q),97%
same,activity at 1 µM,EPHB1,100%
same,activity at 1 µM,MRCKA,100%
same,activity at 1 µM,MAST1,100%
same,activity at 1 µM,EGFR(E746-A750del),79%
same,activity at 1 µM,FLT3(D835V),100%
same,activity at 1 µM,FGR,100%
same,activity at 1 µM,p38-delta,100%
same,activity at 1 µM,MAP3K1,86%
same,activity at 1 µM,RIPK5,100%
same,activity at 1 µM,NDR2,89%
same,activity at 1 µM,PRKCI,60%
same,activity at 1 µM,PRKD1,100%
same,activity at 1 µM,DAPK3,88%
same,activity at 1 µM,WNK2,100%
same,activity at 1 µM,ERBB3,100%
same,activity at 1 µM,FLT3-autoinhibited,100%
same,activity at 1 µM,RIPK4,100%
same,activity at 1 µM,INSRR,100%
same,activity at 1 µM,ANKK1,100%
same,activity at 1 µM,YSK4,98%
same,activity at 1 µM,BLK,96%
same,activity at 1 µM,PIK3CA(M1043I),99%
same,activity at 1 µM,NEK11,100%
same,activity at 1 µM,CDC2L2,70%
same,activity at 1 µM,MAP3K3,100%
same,activity at 1 µM,MAP4K5,100%
same,activity at 1 µM,PFCDPK1(P.falciparum),63%
same,activity at 1 µM,SRC,97%
same,activity at 1 µM,EPHB2,100%
same,activity at 1 µM,p38-gamma,94%
same,activity at 1 µM,CSNK1G2,100%
